“Also recorded” adds a separate entry of the source. Like-named read-outs stand apart in the source and are kept apart here.
Tests used:
mGAT1 = target: T1, mGAT1 (Mus musculus, UniProt P31648); test: [3H]GABA uptake at mGAT1 stably expressed in HEK-293 cells; type: cell-based
T1 construct: expressed in transfected cells
Protocol: (§1) The HEK-293 and Flp-In CHO cell lines stably expressing mouse (m) and human (h) GATs, respectively, have been described previously and were cultured accordingly. The tsA201 cell line was used for transient expression while the MDCK II cell line express BGT1 endogenously. Both cell lines were cultured as described. tsA201 cells were transfected with DNA constructs (8 μg per 10 cm dish if not otherwise mentioned) using 40 μL PolyFect transfection reagent according to the manufacturer’s protocol (Qiagen, Venlo, Netherlands). The DNA constructs encoding hBGT1, hGAT1-3 [36], the mutated constructs hBGT1 Q299 and hGAT3 L314Q described previously, and hBGT Y453A were synthesized and sequence validated by Genscript (NJ, USA).
(§2) The [^3H]GABA competition uptake assay was performed as previously described. A minor change, however, was introduced for uptake in MDCK II cells, in which 100 nM [^3H]GABA was used for a 15 min incubation period at 37 °C instead of 30 nM [^3H]GABA and 3 min incubation. Studies related to the inhibition curves with GABA and BPDBA at hBGT1 were obtained both with and without the presence of 10 μM ATP during the [^3H]GABA uptake assay.
(§3) The [^3H]GABA uptake data was normalized to the percentage of total uptake in the individual experiments in the presence of the lowest compound concentration or no compound present. Data presented is the pooled data of at least three independent experiments with three technical replicates. Concentration–response curves (CRCs) were fitted with GraphPad Prism (version 8.2.1, Yosemite, GraphPad Software, San Diego, CA, USA) by non-linear regression to the sigmoidal concentration response model: Y=Bottom+(Top-Bottom)/1+10^LogIC50-X∗nH where Top is the Top plateau, Bottom is the Bottom plateau, X is the logarithm of the concentration of the compound, LogIC50 is the concentration giving a response halfway between Top and Bottom,and nH is the Hill slope.
(§4) The best fit for CRCs obtained with the [^3H]GABA uptake assay was identified by the extra-sum-of-squares F test (for convenience referred to as F test).

Alpha2B = target: T2, Alpha2B (Homo sapiens, UniProt P18089); test: NIMH PDSP radioligand binding, Alpha2B; conditions: radioligand [3H]rauwolscine, n=4
T2 construct: purchased NIMH Psychoactive Drug Screening Program (PDSP)
T2 sequence (P18089 whole entry): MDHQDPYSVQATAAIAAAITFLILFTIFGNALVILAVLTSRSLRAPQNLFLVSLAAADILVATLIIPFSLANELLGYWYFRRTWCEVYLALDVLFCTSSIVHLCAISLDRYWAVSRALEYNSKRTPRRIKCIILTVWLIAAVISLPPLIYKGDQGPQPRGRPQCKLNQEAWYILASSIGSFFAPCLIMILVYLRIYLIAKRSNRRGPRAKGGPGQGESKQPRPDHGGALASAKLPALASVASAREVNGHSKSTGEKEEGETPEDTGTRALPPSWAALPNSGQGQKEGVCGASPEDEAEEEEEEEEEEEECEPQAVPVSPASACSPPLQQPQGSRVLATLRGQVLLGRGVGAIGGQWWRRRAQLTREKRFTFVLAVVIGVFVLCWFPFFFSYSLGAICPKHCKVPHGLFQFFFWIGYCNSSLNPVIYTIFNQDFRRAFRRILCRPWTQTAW

hGAT1 = target: T3, hGAT1 (Homo sapiens, UniProt P30531); test: [3H]GABA uptake at hGAT1 stably expressed in CHO cells; type: cell-based; conditions: for IC50: CHO
T3 construct: expressed in transfected cells
T3 sequence (P30531 whole entry): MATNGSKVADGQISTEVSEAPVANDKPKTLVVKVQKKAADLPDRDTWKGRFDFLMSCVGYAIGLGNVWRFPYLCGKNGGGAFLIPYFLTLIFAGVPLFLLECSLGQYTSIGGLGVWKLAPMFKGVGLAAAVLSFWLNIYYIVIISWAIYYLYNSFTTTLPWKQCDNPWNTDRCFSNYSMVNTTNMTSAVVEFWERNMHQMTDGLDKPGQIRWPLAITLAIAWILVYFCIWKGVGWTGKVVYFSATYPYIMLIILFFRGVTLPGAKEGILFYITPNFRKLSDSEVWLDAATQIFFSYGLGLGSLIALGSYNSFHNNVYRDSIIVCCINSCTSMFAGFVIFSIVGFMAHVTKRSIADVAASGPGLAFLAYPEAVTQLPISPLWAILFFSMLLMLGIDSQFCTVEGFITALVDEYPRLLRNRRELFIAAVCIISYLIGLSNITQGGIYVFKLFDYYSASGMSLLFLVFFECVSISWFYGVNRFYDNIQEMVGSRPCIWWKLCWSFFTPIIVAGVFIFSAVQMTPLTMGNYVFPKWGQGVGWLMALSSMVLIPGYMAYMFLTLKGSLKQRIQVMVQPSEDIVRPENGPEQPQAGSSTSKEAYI
Protocol: as §1, §2, §3, §4

Sigma2 = test: NIMH PDSP radioligand binding, Sigma2; conditions: 10 μM; radioligand [3H]DTG; n=4
Protocol: (§5) IC50 values in μM (Ki μM)^a. The targets in bold were inhibited by >35% at 10 μM.

AGS Frings mice = test: Audiogenic induced seizure test; type: in vivo, mouse
Excerpt: Male audiogenic-susceptible (AGS) Frings mice were obtained from an in-house breeding facility at the University of Utah (Salt Lake City, UT, USA). Male CF-1 mice for the maximal electroshock (MES) test and the subcutaneous pentylenetetrazol (s.c.PTZ) seizure threshold test were purchased from Charles River (Kingston, WA, USA). All mice were housed in a temperature, humidity, and light (on at 6:00 AM) controlled facility at the University of Utah with access to ad libitum food and water except during testing. All procedures were carried out at the University of Utah in concordance with the National Institutes of Health Guidelines for the Care and Use of Laboratory Animals and under approval from the University of Utah’s Institutional Animal Care and Use Committee. The mice were euthanized in accordance with Public Health Service policies on the humane care of laboratory animals. […] The seizures were induced as previously described. In brief, Frings mice were placed in a Plexiglas cylinder (diameter 15 cm, height 18 cm) connected to an audio transducer and exposed to a sound stimulus of 110 decibel (11 kHz) for a duration of 20 s. […] Probit analysis was used to analyse the efficacy and tolerability results obtained from the dose–response studies and to calculate the median effective (ED50) dose, the median toxic dose (TD50), and the 95% confidence interval.

DAT = target: T4, DAT (Homo sapiens, UniProt Q01959); test: NIMH PDSP radioligand binding, DAT; conditions: radioligand [3H]WIN35428, n=4
T4 construct: purchased NIMH Psychoactive Drug Screening Program (PDSP)
T4 sequence (Q01959 whole entry): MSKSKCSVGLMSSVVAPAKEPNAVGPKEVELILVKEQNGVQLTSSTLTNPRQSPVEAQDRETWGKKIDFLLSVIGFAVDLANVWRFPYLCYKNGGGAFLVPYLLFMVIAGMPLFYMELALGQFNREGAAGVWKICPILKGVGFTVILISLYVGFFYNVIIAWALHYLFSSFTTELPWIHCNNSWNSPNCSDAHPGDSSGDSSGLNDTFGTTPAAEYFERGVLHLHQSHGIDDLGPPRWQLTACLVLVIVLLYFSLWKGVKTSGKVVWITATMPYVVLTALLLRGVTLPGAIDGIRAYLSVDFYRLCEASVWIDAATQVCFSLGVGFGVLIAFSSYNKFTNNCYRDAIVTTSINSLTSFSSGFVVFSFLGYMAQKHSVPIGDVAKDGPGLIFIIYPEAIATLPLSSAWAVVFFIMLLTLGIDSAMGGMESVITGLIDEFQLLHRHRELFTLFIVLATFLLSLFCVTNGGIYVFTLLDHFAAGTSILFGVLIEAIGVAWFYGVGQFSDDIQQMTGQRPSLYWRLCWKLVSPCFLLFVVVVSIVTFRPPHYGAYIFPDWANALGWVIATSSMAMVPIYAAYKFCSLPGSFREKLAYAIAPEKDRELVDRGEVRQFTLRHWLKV

Sigma1 = Sigma1 (Cavia porcellus, UniProt Q60492); test: NIMH PDSP radioligand binding, Sigma1; conditions: radioligand [3H]pentazocine(+), n=4
Sigma1, sequence (Q60492 whole entry): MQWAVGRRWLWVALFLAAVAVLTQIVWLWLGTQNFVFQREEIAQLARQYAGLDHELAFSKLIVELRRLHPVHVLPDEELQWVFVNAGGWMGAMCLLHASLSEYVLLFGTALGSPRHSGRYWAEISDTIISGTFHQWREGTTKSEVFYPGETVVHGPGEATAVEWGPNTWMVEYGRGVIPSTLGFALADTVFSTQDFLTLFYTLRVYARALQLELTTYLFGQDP
Protocol: as §5

Cc1ccsc1C(=CCCN(C)[C@H]1CCCC[C@H]1C(=O)O)c1sccc1C [SBV2-114, (1R,2S)-2-((4,4-bis(3-methylthiophen-2-yl)but-3-en-yl)(methyl)amino)cyclohexanecarboxylic acid]
IC50 (mGAT1; ambiguous fit, N=1 experiment, read-out: IC50): > 1000 µM
Frac (mGAT1; biphasic fit, N=1 experiment): 0.14
IC50 (mGAT1; biphasic fit, N=1 experiment, read-out: pIC50, high affinity component (converted)): 0.417 µM
IC50 (mGAT1; monophasic fit, N=1 experiment, read-out: IC50): > 1000 µM
Fit (mGAT1; preferred model per experiment, F test): Biphasic; also recorded: Monophasic; also recorded: Ambiguous
IC50 (mGAT1; read-out: IC50, low affinity component, biphasic fit, N=1 experiment): 755 µM
inhibition at 10 µM (Alpha2B): 24.9%
IC50 (hGAT1; ambiguous fit, N=2): 566 µM
IC50 (hGAT1; monophasic fit, N=1): 476 µM
Fit (hGAT1; preferred model per experiment): Ambiguous; also recorded: Monophasic
% inhibition (Sigma2): 48.3%
#Protected/#Tested (AGS Frings mice; 50 mg/kg i.p., 15 min): 3/4
#Protected/#Tested (AGS Frings mice; 50 mg/kg i.p., 30 min): 2/4
#Protected/#Tested (AGS Frings mice; 50 mg/kg i.p., 60 min): 1/4
#Protected/#Tested (AGS Frings mice; 50 mg/kg i.p., 120 min): 0/4
#Protected/#Tested (AGS Frings mice; 120 mg/kg i.p., 30 min): 4/4
#Protected/#Tested (AGS Frings mice; 120 mg/kg i.p., 60 min): 3/4
#Protected/#Tested (AGS Frings mice; 120 mg/kg i.p., 120 min): 2/4
#Protected/#Tested (AGS Frings mice; 120 mg/kg i.p., 240 min): 1/4
brain permeance (AGS Frings mice; concluded from seizure protection after i.p. dosing): brain-permeant
time-to peak (TPE) (AGS Frings mice; i.p., Frings mice, a faster TPE cannot be excluded): 15 min
inhibition at 10 µM (DAT): 36.9%
inhibition at 10 µM (Sigma1): 55.6%
